# Measurements from the supplement of paper PMC10307832.
# Key:
# Experiment in all cases: relative viability (nuclei count vs DMSO), 5 days (fraction); higher = more cells survive
# [1] = compound: C1=CC=C(C(=C1)C2=CC=C(C=C2)C3=CSC4=C3C(=C(C(=O)N4)C#N)O)O + Cc1cc(Nc2cc(N3CCN(C)CC3)nc(Sc3ccc(NC(=O)C4CC4)cc3)n2)n[nH]1 [Tozasertib] (partner 0.1 µM)
# Outline: (§1)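 Relative viability divides the nuclei count in treated wells by that in vehicle wells. Lung cancer cell lines were seeded in 1536-well plates, dosed by pin tool the next day, and fixed and stained after 5 days in one step with final 0.05% Triton X-100, 1% formaldehyde and 1 ug/ml Hoechst. Dosing was a single drug or a fixed anchor-drug dose plus five library-drug doses (not always all listed) in √10 steps, and values are medians of duplicate plates imaged at 4×.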
# [2] = compound: O=C(CCCCCCNC(=O)c1cnc(N(c2ccccc2)c2ccccc2)nc1)NO [Ricolinostat] + O=C(c1cc(Cc2n[nH]c(=O)c3ccccc23)ccc1F)N1CCN(C(=O)C2CC2)CC1 [Olaparib] (partner 8 µM)
# Outline: as §1
# [3] = compound: O=C(CCCCCCNC(=O)c1cnc(N(c2ccccc2)c2ccccc2)nc1)NO [Ricolinostat] + CS(=O)(=O)N1CCN(Cc2cc3nc(-c4cccc5[nH]ncc45)nc(N4CCOCC4)c3s2)CC1 [Pictilisib] (partner 1 µM)
# Outline: as §1
# [4] = compound: O=C(CCCCCCNC(=O)c1cnc(N(c2ccccc2)c2ccccc2)nc1)NO [Ricolinostat] + CC(C)C[C@H](NC(=O)[C@H](Cc1ccccc1)NC(=O)c1cnccn1)B(O)O [Bortezomib] (partner 0.002 µM)
# Outline: as §1
Cell Line,relative viability ([1]; first compound 0.08 µM),relative viability ([1]; first compound 0.253 µM),relative viability ([1]; first compound 0.8 µM),relative viability ([1]; first compound 2.53 µM),relative viability ([1]; first compound 8 µM),relative viability ([2]; first compound 0.08 µM),relative viability ([2]; first compound 0.253 µM),relative viability ([2]; first compound 0.8 µM),relative viability ([2]; first compound 2.53 µM),relative viability ([3]; first compound 0.08 µM),relative viability ([3]; first compound 0.253 µM),relative viability ([3]; first compound 0.8 µM),relative viability ([3]; first compound 2.53 µM),relative viability ([4]; first compound 0.08 µM),relative viability ([4]; first compound 0.253 µM),relative viability ([4]; first compound 0.8 µM),relative viability ([4]; first compound 2.53 µM)
201T,0.743,1.03,1.01,1.05,0.926,0.785,0.845,0.891,0.806,0.586,0.748,0.727,0.606,0.989,1.11,1.09,1.12
A549,,,,,,,0.252,0.286,0.139,0.405,0.517,0.471,0.312,,,,
A-427,0.188,0.209,0.248,0.224,0.215,0.572,0.762,0.586,0.594,0.626,0.722,0.781,0.757,0.89,0.998,0.933,0.736
ABC-1,0.214,0.204,0.205,0.265,0.186,0.781,1.05,1.08,1.01,0.541,0.731,0.606,0.446,0.311,0.302,0.25,0.264
BEN,0.477,0.507,0.747,0.75,0.541,1.05,0.995,0.999,1.02,0.462,0.532,0.425,0.354,0.781,0.694,0.567,0.609
CAL-12T,0.272,0.334,0.305,0.337,0.282,0.739,0.732,0.701,0.77,0.339,0.479,0.344,0.388,0.814,0.833,0.816,0.937
COR-L23,0.195,0.213,0.199,0.174,0.153,0.247,0.315,0.267,0.168,0.576,0.737,0.697,0.326,0.919,0.894,0.951,0.464
COR-L 105,0.386,0.341,0.358,0.383,0.379,0.61,0.686,0.797,0.962,0.367,0.412,0.485,0.279,0.844,0.885,0.946,0.993
Calu-6,,,,,,0.548,0.526,0.562,0.419,0.898,0.91,0.795,0.648,1.08,1.01,0.982,0.957
ChaGo-K-1,0.242,0.238,0.239,0.232,0.208,0.464,0.395,0.364,0.324,0.916,0.676,0.616,0.625,1,1.18,0.959,0.9
EBC-1,,,,,,0.638,0.618,0.571,0.352,0.372,0.403,0.26,0.165,0.49,0.458,0.386,0.263
EKVX,0.519,0.484,0.349,0.546,0.336,0.638,0.897,0.853,0.836,,0.444,0.456,0.378,,1.03,1.16,0.83
EMC-BAC-2,0.297,0.303,0.254,0.327,0.305,0.52,0.442,0.393,0.347,0.433,0.578,0.558,0.442,0.957,1.12,1.06,0.941
EPLC-272H,0.223,0.194,0.227,0.22,0.247,0.866,0.938,0.612,0.309,,0.343,0.285,0.355,,0.751,0.848,0.871
H3255,1.04,0.727,0.213,0.868,0.559,0.543,0.529,0.525,0.506,0.387,0.418,0.484,0.484,0.516,0.727,0.678,0.617
HARA,0.117,0.106,0.49,0.104,0.101,0.855,0.889,0.29,0.482,0.208,0.481,0.503,0.203,1.05,1.02,1.1,0.638
HCC-15,0.474,0.579,0.371,0.554,0.371,0.669,0.57,0.64,0.59,0.647,0.79,0.779,0.617,0.897,0.987,0.983,0.925
HCC-44,,1.36,0.876,1.03,0.744,1.04,0.922,1.06,1,0.551,0.673,0.635,0.424,0.904,0.887,0.904,0.663
HCC-78,0.465,0.41,0.611,0.503,0.375,,0.788,0.735,0.448,,0.196,0.163,0.184,,0.475,0.455,0.686
HCC-366,0.139,0.137,0.14,0.124,0.0974,0.272,0.309,0.277,0.212,0.133,0.17,0.151,0.198,0.906,1.11,0.904,0.639
HCC-827,0.477,0.455,0.402,0.507,0.399,0.553,0.634,0.593,0.617,0.956,0.965,0.948,1.09,1.01,0.981,0.995,1.03
HOP-62,0.363,0.363,0.337,0.335,0.335,0.516,0.408,0.31,0.394,0.624,0.749,0.624,0.33,0.501,0.595,0.799,0.532
IA-LM,,,,,,0.728,0.92,0.737,0.586,0.234,0.35,0.308,0.316,0.628,0.696,0.73,0.594

Cell Line,relative viability ([1]; first compound 0.08 µM),relative viability ([1]; first compound 0.253 µM),relative viability ([1]; first compound 0.8 µM),relative viability ([1]; first compound 2.53 µM),relative viability ([1]; first compound 8 µM),relative viability ([2]; first compound 0.08 µM),relative viability ([2]; first compound 0.253 µM),relative viability ([2]; first compound 0.8 µM),relative viability ([2]; first compound 2.53 µM),relative viability ([3]; first compound 0.08 µM),relative viability ([3]; first compound 0.253 µM),relative viability ([3]; first compound 0.8 µM),relative viability ([3]; first compound 2.53 µM),relative viability ([4]; first compound 0.08 µM),relative viability ([4]; first compound 0.253 µM),relative viability ([4]; first compound 0.8 µM),relative viability ([4]; first compound 2.53 µM)
LC-2-ad,0.502,0.539,0.487,0.429,0.425,0.699,0.639,0.665,0.285,0.4,0.546,0.433,0.236,0.992,0.984,0.966,0.787
LCLC-97TM1,0.22,0.187,0.164,0.222,0.187,0.355,0.446,0.486,0.341,0.205,0.181,0.168,0.141,,0.59,0.212,0.163
LCLC-103H,0.481,0.478,0.592,0.503,0.457,0.675,0.655,0.771,0.743,0.456,0.47,0.583,0.547,0.79,0.88,1.09,0.927
LK-2,,0.152,0.149,0.198,0.198,0.623,0.687,0.691,0.575,,0.497,0.48,0.483,,,,
LOU-NH91,0.669,0.715,0.612,0.637,0.645,,0.883,0.905,0.858,,0.557,0.492,0.528,,0.502,0.497,0.446
LU99A,0.274,0.256,0.275,0.298,0.279,0.281,0.255,0.206,0.175,0.299,0.262,0.258,0.219,1.02,0.952,0.976,0.745
LXF-289,0.179,0.173,0.201,0.179,0.191,1.04,1.12,1.04,1.01,0.702,0.809,0.804,0.554,0.951,0.931,0.993,0.874
NCI-H23,0.395,0.32,0.373,0.449,0.316,0.351,0.278,0.27,0.275,0.381,0.572,0.475,0.309,0.793,1.14,1.16,0.993
NCI-H322M,0.487,0.426,0.487,0.497,0.444,0.664,0.879,0.807,0.907,,0.558,0.561,0.568,,1.14,1.29,1.22
NCI-H358,0.107,0.112,0.104,0.0911,0.114,0.444,0.57,0.61,0.652,0.213,0.495,0.463,0.539,,,,
NCI-H522,0.523,0.435,0.548,0.541,0.541,0.61,0.651,0.606,0.676,,,,,,,,
NCI-H1299,,,,,,0.95,0.914,0.942,0.91,0.77,0.796,0.784,0.603,0.998,0.955,1.04,0.937
NCI-H1395,0.666,0.843,0.804,0.716,0.772,,0.44,0.479,0.433,,0.636,0.511,0.597,,,,
NCI-H1563,,,,,,,,,,0.634,0.674,0.627,0.732,0.754,0.758,0.837,0.787
NCI-H1623,0.408,0.53,0.397,0.457,0.436,,,,,,,,,,,,
NCI-H1648,0.503,,0.413,0.6,0.392,,0.817,0.407,0.4,,,,,,,,
NCI-H1703,,,,,,,0.426,0.332,0.458,,0.253,0.247,0.275,,0.299,0.261,0.172
NCI-H1793,0.374,0.331,0.354,0.337,0.34,0.692,0.825,0.903,0.902,,0.31,0.311,0.298,,,,
NCI-H1944,0.269,0.281,0.269,0.251,0.228,0.404,0.369,0.308,0.296,0.285,0.347,0.321,0.289,,,,
NCI-H2170,0.71,0.709,0.875,0.721,0.634,0.569,0.507,0.625,0.539,0.27,0.315,0.355,0.287,,,,
NCI-H2342,0.498,0.493,0.543,0.399,0.48,0.444,0.535,0.421,0.46,,,,,,,,
SK-MES-1,0.842,1.07,0.942,1.01,0.923,0.713,0.712,0.691,0.681,0.277,0.34,0.304,0.293,,,,
SW 900,0.618,0.491,0.645,0.539,0.491,0.845,0.836,0.853,0.621,,,,,,,,
